Like-named read-outs stand apart in the source and are kept apart here.
Assays:
[1] = test system: ShHTLs (10 HTL proteins in S. hermonthica); experiment: YLG-based competition assay on HTL proteins of S. hermonthica; assay type: biochemical, Striga hermonthica; details: Supplementary Fig. 27
Text: In P. aegyptiaca, 5 KAI2s have been proposed as the SL receptors for the regulation of seed germination. […] The high sequence similarity may explain the consistency of these compounds in inducing germination in both S. hermonthica and P. aegyptiaca.
The excitation and emission wavelengths of YLG are 480 and 520 nm, respectively. We used a fluorescence spectrophotometer (CARY Eclipse) to detect the fluorescence intensity change of YLG during the enzymatic hydrolysis assay process. All the testing compounds and YLG were dissolved in DMSO and prepared as stock solutions just before use. […] The changes of fluorescence at 520 nm of each well were recorded every 1 min for 30 min. Using the reaction mixture without adding enzyme and tested compounds as the background control. After subtracting the background hydrolysis, a linear fluorescence increase in 8 min was used for further inspection. The IC50 values were determined via fitting relative inhibition percentages with the varying concentrations of compounds in Microsoft Excel.
Supplementary Fig. 27. Binding of compounds 4a, (R)- and (S)-4a, and 4g-i to the HTL proteins in S. hermonthica and KAI2 protein homologs in P. aegyptiaca. In the competitive inhibitory activity assay, YLG (3 µM) was used as the fluorogenic substrate. Error bar indicates SD (n = 3 biologically independent experiments).
(1 picture or pasted object on this page, not shown here)

[2] = Chemical reactivity analysis (HPLC, methanol/PBS pH 7.4); assay type: physicochemical; details: methanol/phosphate-buffered saline mixture; Supplementary Fig. 10 source data; methanol/PBS pH 7.4, 26 °C; read-out: half-life time (t1/2), source data average (converted)
Procedure: Chemical reactivity is an important factor in the bioactivity of natural and synthetic SLs.
One hundred twenty microliters of sample solution was added to a solution of PBS (10 mM, pH 7.4, 810 μL) and methanol (270 μL). The solution was stirred vigorously for 30 s and then transferred to HPLC vial, and the vial was stored at 26 ± 1 °C. […] The analytical column was Extend-C18 (4.6 mm × 150 mm × 5 μm). The mobile phases were CH3CN and H2O (containing 0.1% HCO2H), VCH3CN:VH2O = 50:50, with a flow rate of 1 mL/min, and an injection volume of 5 μL. The percentage of remaining compounds in the solution was calculated from the peak area. The half-life times (t1/2) of samples were calculated.

[3] = test system: P. aegyptiaca seeds; experiment: P. aegyptiaca seed germination assay; assay type: in vivo, Phelipanche aegyptiaca; details: for EC50: Phelipanche aegyptiaca
Method in brief: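 P. aegyptiaca seeds, sterilized in 1% NaClO, preconditioned in the dark at 25 °C for 4 days on glass-fiber discs, then given test compound in water with 1‰ acetone. Incubated dark at 25 °C for a week; germination scored under ×20 magnification, three biological repeats; rac-GR24 positive control.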

[4] = molecular target: ShHTL7 (Striga hermonthica, UniProt A0A0M3PNA2); experiment: ShHTL7-hydrolysis reaction analysis (HPLC); assay type: biochemical; details: 10 μM compound, 30 °C, 30 min
Method in brief: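 Compounds at 10 μM were incubated with 10 μg recombinant ShHTL7 or its mutants in PBS (pH 7.3) at 30 °C for 30 min, then quenched with methanol. The remaining compound was quantified by HPLC, and hydrolysis was expressed relative to a protein-free buffer control (n = 3).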

Chain of ShHTL7 (A0A0M3PNA2 entry or part of it): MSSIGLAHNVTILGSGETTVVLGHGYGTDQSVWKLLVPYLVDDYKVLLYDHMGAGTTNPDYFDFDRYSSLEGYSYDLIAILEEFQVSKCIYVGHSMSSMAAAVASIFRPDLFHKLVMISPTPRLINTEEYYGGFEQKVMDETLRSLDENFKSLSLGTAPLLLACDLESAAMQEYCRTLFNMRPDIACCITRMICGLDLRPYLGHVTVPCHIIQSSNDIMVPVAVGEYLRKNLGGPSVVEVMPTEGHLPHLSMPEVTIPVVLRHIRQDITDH

What does the source list for `CC1=C[C@H](OC(=O)N2CCN(C(=O)COc3ccc(Br)cc3C)CC2)OC1=O` [(S)-4a]?
IC50 ([1]; ShHTL2, YLG competition, read-out: IC50, replicate 1): 44 µM; IC50 ([1]; ShHTL2, YLG competition, read-out: IC50, replicate 2): 49.8 µM; IC50 ([1]; ShHTL2, YLG competition, read-out: IC50, replicate 3): 48.4 µM; IC50 ([1]; ShHTL2, average of 3 replicates, read-out: IC50, average): 47.4 µM; IC50 ([1]; ShHTL3, YLG competition, read-out: IC50, replicate 1): 16.8 µM; IC50 ([1]; ShHTL3, YLG competition, read-out: IC50, replicate 2): 15.4 µM; IC50 ([1]; ShHTL3, YLG competition, read-out: IC50, replicate 3): 14.7 µM; IC50 ([1]; ShHTL3, average of 3 replicates, read-out: IC50, average): 15.7 µM; IC50 ([1]; ShHTL4, YLG competition, read-out: IC50, replicate 1): 2.17 µM; IC50 ([1]; ShHTL4, YLG competition, read-out: IC50, replicate 2): 2.91 µM; IC50 ([1]; ShHTL4, YLG competition, read-out: IC50, replicate 3): 2.59 µM; IC50 ([1]; ShHTL4, average of 3 replicates, read-out: IC50, average): 2.56 µM; IC50 ([1]; ShHTL5, YLG competition, read-out: IC50, replicate 1): 5.38 µM; IC50 ([1]; ShHTL5, YLG competition, read-out: IC50, replicate 2): 6.82 µM; IC50 ([1]; ShHTL5, YLG competition, read-out: IC50, replicate 3): 5.43 µM; IC50 ([1]; ShHTL5, average of 3 replicates, read-out: IC50, average): 5.88 µM; IC50 ([1]; ShHTL6, YLG competition, read-out: IC50, replicate 1): 9.92 µM; IC50 ([1]; ShHTL6, YLG competition, read-out: IC50, replicate 2): 6.62 µM; IC50 ([1]; ShHTL6, YLG competition, read-out: IC50, replicate 3): 7.62 µM; IC50 ([1]; ShHTL6, average of 3 replicates, read-out: IC50, average): 8.05 µM; IC50 ([1]; ShHTL8, YLG competition, read-out: IC50, replicate 1): 12 µM; IC50 ([1]; ShHTL8, YLG competition, read-out: IC50, replicate 2): 7.84 µM; IC50 ([1]; ShHTL8, YLG competition, read-out: IC50, replicate 3): 5.8 µM; IC50 ([1]; ShHTL8, average of 3 replicates, read-out: IC50, average): 8.54 µM; IC50 ([1]; ShHTL9, YLG competition, read-out: IC50, replicate 1): 10.9 µM; IC50 ([1]; ShHTL9, YLG competition, read-out: IC50, replicate 2): 19 µM; IC50 ([1]; ShHTL9, YLG competition, read-out: IC50, replicate 3): 16.2 µM; IC50 ([1]; ShHTL9, average of 3 replicates, read-out: IC50, average): 15.4 µM; IC50 ([1]; ShHTL10, YLG competition, read-out: IC50, replicate 1): 11.7 µM; IC50 ([1]; ShHTL10, YLG competition, read-out: IC50, replicate 2): 11.6 µM; IC50 ([1]; ShHTL10, YLG competition, read-out: IC50, replicate 3): 12.8 µM; IC50 ([1]; ShHTL10, average of 3 replicates, read-out: IC50, average): 12 µM; IC50 ([1]; ShHTL11, YLG competition, read-out: IC50, replicate 1): 6.48 µM; IC50 ([1]; ShHTL11, YLG competition, read-out: IC50, replicate 2): 5.76 µM; IC50 ([1]; ShHTL11, YLG competition, read-out: IC50, replicate 3): 3.77 µM; IC50 ([1]; ShHTL11, average of 3 replicates, read-out: IC50, average): 5.34 µM; half-life at 0.5 mM [2]: 7.71 h; EC50 ([3]; read-out: EC50, P. aegyptiaca seed germination): 33.9 pM; EC50 ([3]; source data of Fig. 2c and Supplementary Fig. 8b, average of 3, read-out: P. aegyptiaca germination EC50 values, source data average (converted)): 21 pM; fold improved P. aegyptiaca seed germination activity, (S)-4a versus (R)-4a ([3]; in vivo): over 40,000 fold; hydrolysis by ShHTL7 [4]: 40.1%; relative percentage of hydrolysis by ShHTL7, source data average ([4]; Supplementary Figs. 11, 20a, 24a): 40.0583%

— article PMC9271048, “Probing strigolactone perception mechanisms with rationally designed small-molecule agonists stimulating germination of root parasitic weeds” (Nature Communications, 2022)
